What all share (format): in vivo
Test [1] relates to Soybean Looper (Chrysodeixis includens, PSEPIN, SBL). As to the kind of experiment: Bioassay 7: soybean looper, artificial diet, 96 well plate. The settings on record: CL; F1 alone at 0.000005 wt %.
The subject of test [2] is Sweet Potato Whitefly (Bemisia tabaci, BEMITA, SPW). As to the kind of experiment: Bioassay 2: sweet potato whitefly, cotton seedling foliar spray. The settings on record: F1 alone.
The subject of test [3] is Fall Armyworm (Spodoptera frugiperda, LAPHFR, FAW). Description: Bioassay 7: fall armyworm, artificial diet, 96 well plate. As to the method: The test solutions were tested against CEW, FAW, BAW, and SBL using the following procedure: an artificial lepidopteran diet (Multispecies Lepidopteran Diet, Southland Products) was distributed in 96 well plate. Twenty μL of test solution was pipetted onto a cell in the bioassay plate. […] Each treatment was replicated 5 times for each species. Approximately five first instar CEW, FAW, BAW, or SBL larva were placed on top of the diet in each cell and was contained with a clear perforated adhesive lid. Test trays were held at approximately 25° C. and ambient relative humidity prior to grading. After five days, the number of cells where all the larvae were dead were recorded as 100% and averaged across all replicates; then the percent control was measured using Abbott's correction formula (W. S. Abbott, J. Econ. Entomol. 18 (1925), pp. 265-267) as follows:
where X=No. of live larvae on solvent check and Y=No. of live larvae on treated diet. In Table 7 the “Expected % Control” was calculated using the method described in Colby S. R., Weeds, 1967, 15, 20-22. Bioassay 8: Western Corn Rootworm (Diabrotica virgifera virgifera, DIABVI, “WCR”)

In test [4] the test system is Western Corn Rootworm (Diabrotica virgifera virgifera, DIABVI, WCR). Description: Bioassay 8: western corn rootworm, soil drench, corn root protection. The settings on record: F1 alone, DIABVI (CRW), 10 mL soil drench, corn nodal root length after 13 days. As to the method:
Corn seeds were planted in steam pasteurized soil filled greenhouse pots. Western corn rootworm Diabrotica virgifera virgifera eggs supplied from the Corteva Agriscience in Johnston, IA US, were suspended in a 0.08% agar solution added into the soil. Stock solutions of F1 and active ingredients were prepared at a concentration of either 250 or 500 ugai/10 mL for F1 and active ingredients at the ratios of (F1:AI) 1:0.004; 1:0.01; 1:0.02; 1:0.04; 1:0.08; 1:0.1; 1:0.15; 1:0.2; 1:0.4; 1:2; or 1:4, using a 1:1 solution of acetone:water as a diluent. A soil application of solutions were applied as a 10 mL drench over the soil. Plants were grown in the greenhouse for 13 days at 25 C after which the roots were removed from the soil, washed, and measured to determine the length of the median nodal roots. The measured lengths were compared to the infested and un-infested untreated checks to determine the mean percent control offered to protect the corn roots.

“And” between values parts separate entries of the source, which are not always exact repeats. Equal entries are not always repeated.

On to `Cc1ccc(COCC(F)(F)F)c(N2C(=O)CS/C2=N\C(=O)Nc2ccc(-c3ncn(-c4ccc(OC(F)(F)F)cc4)n3)cc2F)c1` [F1], for which the “Average % Control F1” value in test [1] is 80.0%; in test [2] (F1 0.1, 7-9 days after treatment), 0.0%; in test [2] (F1 10, 7-9 days after treatment) it was 37.4% and 50.1%; in test [3] (F1 alone at 0.0000025 wt %), 0.0%; in test [3] (F1 alone at 0.000005 wt %), 62.5%; in test [4] (UgActive F1 250), 97.8% and 88.8%. Besides, the “Average % Control F1” value in test [4] (UgActive F1 500) is 83.9%.

The values above are taken from patent publication US20260182575A1, “MOLECULES HAVING PESTICIDAL UTILITY AND INTERMEDIATES AND PROCESSES RELATED THERETO” (CORTEVA AGRISCIENCE LLC, priority 2022, published 2026).
